Active and inactive are the calls of the source. The calls are words filed in the database; no cut-off is given here.

Data set [1] can be described thus: Selectivity index, ratio of EC50 for effect on basal transcription in human U251 cells co-transfected with pGL3 to EC50 for Inhibition of human HIF1alpha expressed in human U251 cells co-transfected with pGL2-TK-HRE. Further details: species or system U-251.
Data set [2] concerns U-251. Kind of data set: Effect on basal transcription in human U251 cells co-transfected with pGL3 incubated for 24 hrs by luciferase reporter gene assay. The data set is classed as ADME, cell-based. The note with it: U-251, 24 h. On the technique in general: Reporter assays use an easily measured gene product as a stand-in for the process of interest.
Data set [3] has as its target T1, Hypoxia-inducible factor 1-alpha (Homo sapiens, UniProt Q16665). The data set is described as follows: Inhibition of human HIF1alpha-mediated transcription expressed in human U251 cells co-transfected with pGL2-TK-HRE incubated for 24 hrs by luciferase reporter gene assay. The format is cell-based, U-251.
Target sequence in this assay (Q16665 whole entry): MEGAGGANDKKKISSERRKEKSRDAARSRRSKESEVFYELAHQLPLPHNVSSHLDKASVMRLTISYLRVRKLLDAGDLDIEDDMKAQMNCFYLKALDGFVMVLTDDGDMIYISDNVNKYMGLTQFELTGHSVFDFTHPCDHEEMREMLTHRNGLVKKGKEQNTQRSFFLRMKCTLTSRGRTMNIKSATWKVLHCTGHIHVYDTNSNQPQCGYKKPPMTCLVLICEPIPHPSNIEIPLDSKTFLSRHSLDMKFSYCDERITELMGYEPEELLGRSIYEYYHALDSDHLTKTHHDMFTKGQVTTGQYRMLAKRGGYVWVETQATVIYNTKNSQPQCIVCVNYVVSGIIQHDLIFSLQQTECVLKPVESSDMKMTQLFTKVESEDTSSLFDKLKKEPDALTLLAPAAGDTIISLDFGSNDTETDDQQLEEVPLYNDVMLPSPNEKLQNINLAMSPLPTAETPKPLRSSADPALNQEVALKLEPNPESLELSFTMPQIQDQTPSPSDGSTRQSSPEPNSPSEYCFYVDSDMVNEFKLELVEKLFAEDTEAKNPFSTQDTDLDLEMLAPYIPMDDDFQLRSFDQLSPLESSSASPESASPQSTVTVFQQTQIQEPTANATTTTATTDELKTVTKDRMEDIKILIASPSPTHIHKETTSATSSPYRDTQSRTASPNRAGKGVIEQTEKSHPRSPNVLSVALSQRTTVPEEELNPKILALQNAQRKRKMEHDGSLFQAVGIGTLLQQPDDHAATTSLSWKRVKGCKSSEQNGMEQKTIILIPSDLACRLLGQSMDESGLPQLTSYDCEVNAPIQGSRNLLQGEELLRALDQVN
Data set [4] relates to U-251. The data set is described as follows: Inhibition of human HIF1alpha mRNA expression in wild type human U251 cells at 10 uM incubated for 8 hrs under hypoxic condition (reference value: 0.7 no unit). The format is functional.
In data set [5] the target is T1, Hypoxia-inducible factor 1-alpha. Kind of data set: Inhibition of human HIF1alpha-mediated VEGF mRNA expression in wild type human U251 cells at 1 uM incubated for 16 hrs under normoxic condition (Rvb =2.9 No unit). The data set is classed as cell-based. The note with it: U-251.
Target sequence in this assay (Q16665 whole entry, looked up): as the sequence (Q16665 whole entry) above
Data set [6] shares this target. The data set is described as follows: Inhibition of human HIF1alpha-mediated VEGF mRNA expression in wild type human U251 cells at 10 uM incubated for 8 hrs under hypoxic condition (reference value: 3.5 No unit). The data set is classed as cell-based. The note with it: U-251.
Target sequence in this assay (Q16665 whole entry, looked up): as the sequence (Q16665 whole entry) above
The subject of data set [7] is U-251. Kind of data set: Inhibition of human HIF1alpha mRNA expression in wild type human U251 cells at 1 uM incubated for 8 hrs under hypoxic condition (reference value: 0.7 no unit). The format is functional.
The target in data set [8] is T1, Hypoxia-inducible factor 1-alpha. The data set is described as follows: Inhibition of human HIF1alpha-mediated VEGF mRNA expression in wild type human U251 cells at 1 uM incubated for 8 hrs under hypoxic condition (reference value: 3.5 No unit). The data set is classed as cell-based. As to conditions: U-251.
Target sequence in this assay (Q16665 whole entry, looked up): as the sequence (Q16665 whole entry) above
In data set [9] the test system is U-251. The data set is described as follows: Inhibition of human HIF1alpha mRNA expression in wild type human U251 cells at 1 and 10 uM incubated for 8 and 16 hrs under normoxic condition. The format is functional, cell-based.
In data set [10] the test system is U-251. The data set is described as follows: Effect on basal transcription in wild type human U251 cells at 1 and 10 uM incubated for 8 and 16 hrs under normoxic condition. The format is ADME, cell-based. The note with it: u-251, 16 h.
The test system of data set [11] is U-251. The data set is described as follows: Inhibition of hypoxia-induced HIF1beta protein accumulation in wild type human U251 cells at 1 and 10 uM incubated for 8 hrs under hypoxic condition. The format is cell-based.
The target of data set [12] is T1, Hypoxia-inducible factor 1-alpha. The data set is described as follows: Inhibition of human HIF1alpha-mediated VEGF mRNA expression in wild type human U251 cells at 1 uM incubated for 16 hrs under hypoxic condition. The format is cell-based. As to conditions: U-251.
Target sequence in this assay (Q16665 whole entry, looked up): as the sequence (Q16665 whole entry) above
The target is the same in data set [13]. The data set is described as follows: Inhibition of HIF1alpha protein accumulation in wild type human U251 cells at 10 uM incubated for 16 hrs under normoxic condition. The format is cell-based. The note with it: U-251.
Target sequence in this assay (Q16665 whole entry, looked up): as the sequence (Q16665 whole entry) above
The target is the same in data set [14]. The data set is described as follows: Inhibition of human HIF1alpha-mediated VEGF mRNA expression in wild type human U251 cells at 10 uM incubated for 16 hrs under normoxic condition (Rvb =2.9 No unit). The note with it: U-251. The format is cell-based.
Target sequence in this assay (Q16665 whole entry, looked up): as the sequence (Q16665 whole entry) above
The test system of data set [15] is U-251. The data set is described as follows: Inhibition of human HIF1alpha mRNA expression in wild type human U251 cells at 1 uM incubated for 16 hrs under hypoxic condition (reference value: 0.9 no unit). The format is functional.
Data set [16] concerns U-251. Kind of data set: Inhibition of human HIF1alpha mRNA expression in wild type human U251 cells at 10 uM incubated for 16 hrs under hypoxic condition (reference value: 0.9 no unit). The data set is classed as functional.
Data set [17] relates to U-251. The data set is described as follows: Inhibition of hypoxia-induced HIF1beta protein accumulation in wild type human U251 cells at 1 and 10 uM incubated for 8 hrs under normoxic condition. The data set is classed as cell-based.
Data set [18] has as its target T1, Hypoxia-inducible factor 1-alpha. The data set is described as follows: Inhibition of human HIF1alpha-mediated VEGF mRNA expression in wild type human U251 cells at 10 uM incubated for 16 hrs under hypoxic condition. The format is cell-based. As to conditions: U-251.
The subject of data set [19] is U-251. Kind of data set: Inhibition of human HIF1alpha mRNA expression in wild type human U251 cells at 10 uM incubated for 8 hrs. The data set is classed as functional. As to conditions: U-251, 8 h.
Data set [20] addresses T1, Hypoxia-inducible factor 1-alpha. Kind of data set: Inhibition of hypoxia-induced HIF1alpha protein accumulation in wild type human U251 cells at 1 and 10 uM incubated for 8 hrs under hypoxic condition. The format is cell-based. As to conditions: U-251.
Data set [21] relates to U-251. Kind of data set: Inhibition of human HIF1alpha mRNA expression in wild type human U251 cells at 10 uM incubated for 16 hrs. The data set is classed as functional. As to conditions: U-251, 16 h.

In general, EC50 refers to the concentration at which the effect is half-maximal. High values mean a less potent agent, low ones a more potent agent. `C[C@@]12C(=O)c3cccc(O)c3C(=O)[C@@H]1C[C@@H]1C(=CC[C@@H]3C(=O)NC(=O)[C@@H]31)[C@@H]2c1ccc(C(F)(F)F)cc1` (racemic): the “Ratio EC50” value in [1] is recorded as over 3. Moreover, the EC50 was over 20 µM in the data set on U-251 [2] and 6.7 µM in data set [3].
A word on the inhibition: it is the relative decrease from the control value, in per cent. For `C[C@@]12C[C@@H]3C(=CC[C@@H]4C(=O)NC(=O)[C@@H]43)[C@H](c3ccc(C(F)(F)F)cc3)[C@@H]1C(=O)c1ccccc1C2=O` (racemic), the “Ratio EC50” value in data set [1] was over 8.6. Also, the “fold change (FC)” value in the data set on U-251 [4] is 0.5; in [5], 1.9; in data set [6], 1.6; in the data set on U-251 [7], 0.8; in [8] it was 3; in data set [14], 1.2. Moreover, the “fold change (FC)” value in the data set on U-251 [15] was 0.7; in the data set on U-251 [16], 0.21. The EC50 is over 20 µM with U-251 [2] and 2.3 µM in data set [3]. In addition, the inhibition result (with U-251 [9]; in data set [13]) was “Active” in each case. Moreover, the Activity entry with U-251 [10] is given as “Non-toxic”. Moreover, the inhibition result with U-251 [11] and in the data set with U-251 [17] was “inactive” in each case. Further, the inhibition in data set [12] was 35%; in data set [18], 59%; in data set [20], “Dose-dependent effect”. The results for the inhibition at 10 µM with U-251 [19] and in the data set on U-251 [21] were 29% and 45%, respectively.
Take `C[C@@]12C[C@@H]3C(=CC[C@@H]4C(=O)N(CCC(=O)O)C(=O)[C@@H]43)[C@H](c3ccc(Br)cc3)[C@@H]1C(=O)c1ccccc1C2=O` (racemic): the “Ratio EC50” value in data set [1] was over 14. Also, the “fold change (FC)” value with U-251 [4] is 0.4; in data set [5], 1.6; in data set [6], 1.7; with U-251 [7], 0.8; in data set [8], 2.7; in data set [14], 0.9. The “fold change (FC)” value with U-251 [15] worked out at 0.7; in the data set on U-251 [16], 0.2. Besides, the EC50 with U-251 [2] was over 20 µM; in data set [3], 1.4 µM. Besides, the inhibition result (with U-251 [9]; in data set [13]) was “Active” in each case. Further, in the data set with U-251 [10], the Activity entry was “Non-toxic”. In addition, the inhibition result in the data set with U-251 [11] and in the data set on U-251 [17] was “inactive” throughout. Besides, the inhibition was 38% in data set [12], 69% in data set [18] and “Dose-dependent effect” in [20]. Further, the inhibition at 10 µM is 43% in the data set with U-251 [19] and 78% with U-251 [21].
Turning to `COc1cccc2c1C(=O)[C@@H]1C[C@@H]3C(=CC[C@@H]4C(=O)NC(=O)[C@@H]43)[C@H](c3ccc(C(F)(F)F)cc3)[C@]1(C)C2=O` (racemic), the “Ratio EC50” value in data set [1] is over 3. Further, the EC50 in the data set on U-251 [2] was over 20 µM; in data set [3] it was 6.7 µM.
Take `COc1cccc2c1C(=O)[C@@H]1C[C@@H]3C(=CC[C@@H]4C(=O)N(CCC(=O)O)C(=O)[C@@H]43)[C@H](c3ccc(Br)cc3)[C@]1(C)C2=O` (racemic): in data set [1], the “Ratio EC50” value was over 1.4. In addition, the EC50 was over 20 µM in the data set with U-251 [2] and 15.5 µM in data set [3].
With `C[C@@]12C[C@@H]3C(=CC[C@@H]4C(=O)NC(=O)[C@@H]43)[C@H](c3ccc(C(F)(F)F)cc3)[C@]1(C)C(=O)c1ccccc1C2=O` (racemic), the “Ratio EC50” value in data set [1] is over 2.7. Besides, the EC50 with U-251 [2] is over 20 µM; in data set [3] it was 7.8 µM.
As to `C[C@@]12C[C@@H]3C(=CC[C@@H]4C(=O)N(CCC(=O)O)C(=O)[C@@H]43)[C@H](c3ccc(F)cc3)[C@@H]1C(=O)c1ccccc1C2=O` (racemic), the “Ratio EC50” value in [1] turned out to be 2.15. Also, the EC50 with U-251 [2] amounted to 8.7 µM; in data set [3], 4.1 µM.
As for `CC[C@@]1(O)C(=O)OCc2c1cc1n(c2=O)Cc2cc3c(CN(C)C)c(O)ccc3nc2-1` [TOPOTECAN], the EC50 in the data set on U-251 [2] was over 20 µM.
